Measurements as given in publication PMC5622733, “Polymethoxyflavones: Novel β-Secretase (BACE1) Inhibitors from Citrus Peels” (Nutrients, 2017).

Columns and labels:
[1] = test system: ERK and CREB signaling pathways; conditions: cited from earlier work
[2] = cited from earlier work
[3] = test system: inducible nitric oxide synthase (iNOS), cyclooxygenase-2 (COX-2); conditions: cited from earlier work
BACE1 [4] = biological target: T1, BACE1 (Homo sapiens, UniProt P56817); experiment: FRET-based BACE1 inhibition assay; type: biochemical; conditions: FRET substrate Rh-[…]-Quencher
T1 construct: purchased Invitrogen (Pan Vera, Madison, WI, USA)
T1 sequence (P56817 46-501): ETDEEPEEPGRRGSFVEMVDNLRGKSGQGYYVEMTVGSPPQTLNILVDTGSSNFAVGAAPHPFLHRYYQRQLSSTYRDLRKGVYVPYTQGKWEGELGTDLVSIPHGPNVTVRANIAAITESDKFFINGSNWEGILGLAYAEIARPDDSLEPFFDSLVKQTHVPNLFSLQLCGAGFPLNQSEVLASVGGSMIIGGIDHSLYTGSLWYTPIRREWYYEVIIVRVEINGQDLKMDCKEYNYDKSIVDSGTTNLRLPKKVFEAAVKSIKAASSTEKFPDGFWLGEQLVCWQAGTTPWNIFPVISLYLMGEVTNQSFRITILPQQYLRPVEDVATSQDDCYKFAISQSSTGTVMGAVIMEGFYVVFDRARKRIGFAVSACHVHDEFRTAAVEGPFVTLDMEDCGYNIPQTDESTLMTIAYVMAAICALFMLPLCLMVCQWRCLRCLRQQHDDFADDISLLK
Method: (§1) BACE1 inhibition was determined by enzymatic assay using the fluorescent resonance energy transfer (FRET)-based BACE1 kit from Invitrogen (Pan Vera, Madison, WI, USA). α-Secretase (tumor necrosis factor-α converting enzyme, TACE) and substrate were obtained from R&D Systems (Minneapolis, MN, USA). Trypsin, chymotrypsin, elastase, and their substrates were obtained from Sigma-Aldrich (St. Louis, MO, USA). The measurement of fluorescence and optical density was performed with a BioTEK ELISA microplate fluorescence reader FLx 800 and BioTEK ELx 808 (Winooski, VT, USA), respectively.
(§2) BACE1, TACE, chymotrypsin, trypsin and elastase assays were performed according to previous methods. Fluorometric BACE1 and TACE assay were measured using a Rh-[…]-Quencher and Mca-PLAQAV-Dpa-RSSSR-NH2 as substrates. Trypsin, chymotrypsin, and elastase were assayed according to the manual described in the reference using N-benzoyl-L-Arg-pNA, N-benzoyl-L-Tyr-pNA, and N-succinyl-Ala-Ala-Ala-pNA as substrates, respectively.

BACE1 [5] = biological target: T1, BACE1; experiment: BACE1 inhibition kinetics (Dixon and Lineweaver–Burk plots); type: biochemical; conditions: for Type of inhibition: Dixon and Lineweaver–Burk plots; for Ki: substrate 250-750 nM, read-out: Ki calculated from the Dixon plots
Method: The kinetic mechanisms of the different samples towards BACE1 were determined by the graphical views of Dixon and Lineweaver–Burk plots. The inhibitory constants (Ki) value was defined by interpretation of the Dixon plot, where the value of the x-axis implies -Ki. […] The kinetic parameters were then calculated using Enzyme Kinetic^TM module of SigmaPlot^TM version 12.3 (Systat Software, Inc., San Jose, CA, USA).

[6] = biological target: T2, α-secretase (tumor necrosis factor-α converting enzyme, TACE) (Homo sapiens, UniProt P78536); experiment: TACE (α-secretase) fluorometric assay; type: biochemical; conditions: read-out: Inhibitory activity (%) against TACE
T2 construct: purchased R&D Systems (Minneapolis, MN, USA)
T2 sequence (P78536 215-824): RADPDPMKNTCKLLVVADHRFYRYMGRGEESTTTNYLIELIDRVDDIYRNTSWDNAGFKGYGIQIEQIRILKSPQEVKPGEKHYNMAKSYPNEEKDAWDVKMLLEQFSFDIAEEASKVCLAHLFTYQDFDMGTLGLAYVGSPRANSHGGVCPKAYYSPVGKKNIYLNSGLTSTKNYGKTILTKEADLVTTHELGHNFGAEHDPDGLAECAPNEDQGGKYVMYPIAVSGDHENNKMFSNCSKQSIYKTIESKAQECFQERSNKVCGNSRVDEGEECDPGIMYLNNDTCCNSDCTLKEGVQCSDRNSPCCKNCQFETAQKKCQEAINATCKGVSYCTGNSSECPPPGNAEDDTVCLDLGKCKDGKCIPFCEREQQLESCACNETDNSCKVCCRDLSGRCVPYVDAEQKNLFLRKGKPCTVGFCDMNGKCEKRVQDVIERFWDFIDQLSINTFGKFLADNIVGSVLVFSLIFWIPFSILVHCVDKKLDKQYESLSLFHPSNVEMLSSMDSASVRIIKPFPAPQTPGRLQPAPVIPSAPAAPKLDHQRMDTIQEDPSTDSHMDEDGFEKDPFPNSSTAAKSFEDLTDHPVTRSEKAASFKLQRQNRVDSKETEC
Method: as §1, §2

Trypsin = Trypsin assay; type: biochemical
Method: as §1, §2

Chymotrypsin = biological target: T3, Chymotrypsin (Bos taurus, UniProt P00766); experiment: Chymotrypsin assay; type: biochemical; conditions: read-out: Inhibitory activity (%) against Chymotrypsin
T3 construct: purchased Sigma-Aldrich (St. Louis, MO, USA)
Method: as §1, §2

Elastase = biological target: T4, Elastase (Sus scrofa, UniProt P00772); experiment: Elastase assay; type: biochemical; conditions: read-out: Inhibitory activity (%) against Elastase
T4 construct: purchased Sigma-Aldrich (St. Louis, MO, USA)
T4 sequence (P00772 27-266): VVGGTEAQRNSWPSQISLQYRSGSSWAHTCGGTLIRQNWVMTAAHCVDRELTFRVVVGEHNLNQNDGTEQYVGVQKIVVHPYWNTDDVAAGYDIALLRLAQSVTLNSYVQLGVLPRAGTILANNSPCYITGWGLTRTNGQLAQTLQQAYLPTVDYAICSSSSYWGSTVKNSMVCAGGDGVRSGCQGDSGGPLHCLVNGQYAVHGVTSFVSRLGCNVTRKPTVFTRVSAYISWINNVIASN
Method: as §1, §2

[7] = test system: cyclic AMP response element-mediated transcription; design: method as in PMID 23588349; conditions: rat hippocampal neurons; cited from earlier work
[8] = cited from earlier work; remark: listed apart in the source
P-glycoprotein (P-gp) = test system: P-glycoprotein (P-gp); design: method as in PMID 11098080, PMID 17348674; conditions: adriamycin-resistant human myelogenous leukemia cells and Caco-2 cells, talinolol as probe; cited from earlier work
[9] = test system: olfactory bulbectomy-induced memory impairment; conditions: administration for 11 days; cited from earlier work
APP-SL 7-5 Tg mice = conditions: daily from 4 to 9 months of age; cited from earlier work
3XTg-AD mice = conditions: cited from earlier work
[10] = test system: primary rat microglia and BV-2 microglial cell; conditions: LPS-induced; cited from earlier work
6-OHDA-lesioned rats = conditions: 20 mg/kg/day for 4 days before 6-OHDA injection; cited from earlier work
[11] = chronic oral administration; cited from earlier work
[12] = rats, up to 1000 to 3000 mg/kg bw; cited from earlier work

Compound | Suppression of gene expression of iNOS and COX-2 relative to parent compound [3] | IC50 (BACE1 [4]) | Type of inhibition (BACE1 [5]) | Ki (BACE1 [5]) | inhibition at 50 µM [6] | inhibition at 100 µM [6] | Inhibitory activity (%) against Trypsin (Trypsin; 50 μM) | Inhibitory activity (%) against Trypsin (Trypsin; 100 μM) | inhibition at 50 µM (Chymotrypsin) | inhibition at 100 µM (Chymotrypsin) | inhibition at 50 µM (Elastase) | inhibition at 100 µM (Elastase) | P-gp inhibition (P-glycoprotein (P-gp)) | also measured
COc1cc(-c2cc(=O)c3c(OC)c(OC)c(OC)c(OC)c3o2)ccc1O [4′-DMN] | more efficiently suppressed |  |  |  |  |  |  |  |  |  |  |  |  | Phosphorylation of ERK and CREB [1]: stimulate phosphorylation; Ability to cross the blood–brain barrier (BBB) [2]: able to cross the blood–brain barrier (BBB)
COc1ccc(-c2cc(=O)c3c(OC)c(OC)c(OC)c(OC)c3o2)cc1O [3′-DMN] |  |  |  |  |  |  |  |  |  |  |  |  |  | iNOS inhibition relative to nobiletin [3]: more efficiently than nobiletin
COc1ccc(-c2cc(=O)c3c(OC)c(OC)c(OC)cc3o2)cc1OC [Sinensetin, 5,6,7,3′,4′-pentamethoxyflavone] |  | 63 µM | noncompetitive | 38 µM | 7.88 ± 1.12% | 7.19 ± 1.35% | 5.16 ± 0.69% | 4.70 ± 0.58% | 9.08 ± 0.48% | 8.78 ± 0.8% | 7.4 ± 2.09% | 11.4 ± 1.38% |  | CRE-mediated transcription [7]: activate
COc1ccc(-c2cc(=O)c3c(OC)c(OC)c(OC)c(OC)c3o2)cc1OC [Nobiletin, 5,6,7,8,3′,4′-hexamethoxyflavone] |  | 59 µM | noncompetitive | 34 µM | 5.49 ± 0.34% | 11.6 ± 3.07% | 1.00 ± 0.07% | 0.92 ± 0.06% | 1.39 ± 0.17% | 1.77 ± 0.06% | 5.51 ± 1.17% | 4.49 ± 1% | inhibitory potential with P-gp | Content in the brain ([8]; mice, oral 50 mg/kg): 3.6 mg/kg; Content in the brain (molar) ([8]; mice, oral 50 mg/kg): approximately 8.9 µM; Accumulation in the brain versus liver ([8]; oral administration): much higher than that in the liver; Memory impairment [9]: significantly recovered; Aβ1-42 and Aβ1-40 in the brain (APP-SL 7-5 Tg mice): reduced quantity; Memory impairment, context-dependent fear conditioning test (APP-SL 7-5 Tg mice): significantly reversed memory impairment; Soluble Aβ1-40 and ROS levels in brain and hippocampus (3XTg-AD mice): reduced the levels
COc1ccc(-c2cc(=O)c3c(OC)c(OC)c(OC)c(OC)c3o2)cc1 [Tangeretin, 5,6,7,8,4′-pentamethoxyflavo-ne] |  | 49 µM | noncompetitive | 37 µM | 8 ± 1% | 11.3 ± 1.66% | 8.10 ± 0.99% | 11.80 ± 1.04% | 5.68 ± 0.86% | 6.16 ± 0.38% | 8.64 ± 0.65% | 10.6 ± 1.09% | inhibitory potential with P-gp | Microglial cell activation [10]: suppressed; Loss of TH+ cells and striatal dopamine content (6-OHDA-lesioned rats): markedly reduced the loss; Detection in the hippocampus [11]: detected in the hippocampus; Death and clinical chemistry in oral acute and sub-acute study [12]: no evidence of death nor significant change of clinical chemistry
COc1c(OC)c(OC)c2c(=O)cc(-c3ccc(O)c(O)c3)oc2c1OC [3′,4′-di-DMN] | more efficiently suppressed |  |  |  |  |  |  |  |  |  |  |  |  | 
